Test results from patent US10519152B2, “Compounds and their use in treating cancer” (AstraZeneca AB, priority 2017, dated 2019).

Target: T1, Estrogen Receptor (ERα) in MCF-7 human ductal carcinoma breast cell line (Homo sapiens, UniProt P03372)
T1 construct: endogenous in cells; host or cells: MCF-7
T1 sequence (P03372 1-595): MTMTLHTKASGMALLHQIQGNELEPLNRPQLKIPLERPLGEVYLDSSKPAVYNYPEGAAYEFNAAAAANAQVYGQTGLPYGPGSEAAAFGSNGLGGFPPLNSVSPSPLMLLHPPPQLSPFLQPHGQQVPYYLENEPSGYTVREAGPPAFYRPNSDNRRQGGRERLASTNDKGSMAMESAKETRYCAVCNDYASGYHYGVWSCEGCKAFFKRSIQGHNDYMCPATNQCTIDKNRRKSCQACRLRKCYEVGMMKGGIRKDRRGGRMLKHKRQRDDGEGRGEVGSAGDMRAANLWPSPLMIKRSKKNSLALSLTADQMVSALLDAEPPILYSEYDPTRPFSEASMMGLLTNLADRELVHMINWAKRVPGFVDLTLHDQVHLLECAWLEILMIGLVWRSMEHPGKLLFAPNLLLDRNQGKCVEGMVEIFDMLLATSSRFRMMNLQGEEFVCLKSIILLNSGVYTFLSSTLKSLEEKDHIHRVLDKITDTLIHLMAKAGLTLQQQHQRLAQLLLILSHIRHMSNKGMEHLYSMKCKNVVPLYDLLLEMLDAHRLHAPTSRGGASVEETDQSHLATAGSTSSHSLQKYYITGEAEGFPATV
Experiment: MCF-7 ER degradation assay (cell based immuno-fluorescence)
Conditions: MCF-7 cells; for ER degradation ≥ 90% at 0.3 μM: ER degradation by fulvestrant at 0.3 μM is defined as 100%; for DC50: 18-22 hours incubation, 50% reduction of ERα expression, single experiment or average of two or more, read-out: MCF-7 ER degradation IC50
Summary of the method: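 MCF-7 human ductal carcinoma breast cells were seeded at 3.75×10^4 cells per mL (40 μL per well) in 384 well plates with phenol red free DMEM containing 2 mM L-Glutamine and 5% (v/v) Charcoal/Dextran treated foetal calf serum. After overnight culture, compounds were acoustically dispensed, incubated 18-22 hours, then cells were formaldehyde-fixed and immunostained for ERα.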

Row | SMILES | ER degradation ≥ 90% at 0.3 μM | DC50 [nM]
1 | Cc1ncsc1-c1ccc(CNC(=O)[C@@H]2C[C@@H](O)CN2C(=O)[C@@H](NC(=O)COCCOCCOCCCNC(=O)c2cc(F)c([C@@H]3c4[nH]c5ccccc5c4C[C@@H](C)N3CC(C)(C)F)c(F)c2)C(C)(C)C)cc1 [Example 84, (2S,4R)-1-((S)-16-(tert-Butyl)-1-(3,5-difluoro-4-((1R,3R)-2-(2-fluoro-2-methylpropyl)-3-methyl-2,3,4,9-tetrahydro-1H-pyrido[3,4-b]indol-1-yl)phenyl)-1,14-dioxo-6,9,12-trioxa-2,15-diazaheptadecan-17-oyl)-4-hydroxy-N-(4-(4-methylthiazol-5-yl)benzyl)pyrrolidine-2-carboxamide] | •• | 0.7
2 | Cc1ncsc1-c1ccc(CNC(=O)[C@@H]2C[C@@H](O)CN2C(=O)[C@@H](NC(=O)COCCOCCOCCNC(=O)c2cc(F)c([C@@H]3c4[nH]c5ccccc5c4C[C@@H](C)N3CC(C)(C)F)c(F)c2)C(C)(C)C)cc1 [Example 91, (2S,4R)-1-((S)-15-(tert-Butyl)-1-(3,5-difluoro-4-((1R,3R)-2-(2-fluoro-2-methylpropyl)-3-methyl-2,3,4,9-tetrahydro-1H-pyrido[3,4-b]indol-1-yl)phenyl)-1,13-dioxo-5,8,11-trioxa-2,14-diazahexadecan-16-oyl)-4-hydroxy-N-(4-(4-methylthiazol-5-yl)benzyl)pyrrolidine-2-carboxamide] | •• | 0.3
3 | Cc1ncsc1-c1ccc(CNC(=O)[C@@H]2C[C@@H](O)CN2C(=O)[C@@H](NC(=O)COc2ccc(OCCNC(=O)/C=C/c3cc(F)c([C@@H]4c5[nH]c6ccccc6c5C[C@@H](C)N4CC(C)(C)F)c(F)c3)cc2)C(C)(C)C)cc1 [Example 61, (2S,4R)-1-((S)-2-(2-(4-(2-((E)-3-(3,5-difluoro-4-((1R,3R)-2-(2-fluoro-2-methylpropyl)-3-methyl-2,3,4,9-tetrahydro-1H-pyrido[3,4-b]indol-1-yl)phenyl)acrylamido)ethoxy)phenoxy)acetamido)-3,3-dimethylbutanoyl)-4-hydroxy-N-(4-(4-methylthiazol-5-yl)benzyl)pyrrolidine-2-carboxamide, Trifluoroacetic Acid] | •• | 0.7
4 | Cc1ncsc1-c1ccc(CNC(=O)[C@@H]2C[C@@H](O)CN2C(=O)[C@@H](NC(=O)COCCOCCOCCOc2cc(F)c([C@@H]3c4[nH]c5ccccc5c4C[C@@H](C)N3CC(F)(F)F)c(F)c2)C(C)(C)C)cc1 [Example 95, (2S,4R)-1-((S)-2-(tert-Butyl)-14-(3,5-difluoro-4-((1R,3R)-3-methyl-2-(2,2,2-trifluoroethyl)-2,3,4,9-tetrahydro-1H-pyrido[3,4-b]indol-1-yl)phenoxy)-4-oxo-6,9,12-trioxa-3-azatetradecanoyl)-4-hydroxy-N-(4-(4-methylthiazol-5-yl)benzyl)pyrrolidine-2-carboxamide] | •• | 0.4
5 | Cc1ncsc1-c1ccc(CNC(=O)[C@@H]2C[C@@H](O)CN2C(=O)[C@@H](NC(=O)c2ccc(N3CCN(CCNC(=O)/C=C/c4cc(F)c([C@@H]5c6[nH]c7ccccc7c6C[C@@H](C)N5CC(C)(C)F)c(F)c4)CC3)cc2)C(C)(C)C)cc1 [Example 67, (2S,4R)-1-((S)-2-(4-(4-(2-((E)-3-(3,5-difluoro-4-((1R,3R)-2-(2-fluoro-2-methylpropyl)-3-methyl-2,3,4,9-tetrahydro-1H-pyrido[3,4-b]indol-1-yl)phenyl)acrylamido)ethyl)piperazin-1-yl)benzamido)-3,3-dimethylbutanoyl)-4-hydroxy-N-(4-(4-methylthiazol-5-yl)benzyl)pyrrolidine-2-carboxamide, Trifluoroacetic Acid] | • | 4.5
6 | Cc1ncsc1-c1ccc(CNC(=O)[C@@H]2C[C@@H](O)CN2C(=O)[C@@H](NC(=O)CCCCNC(=O)/C=C/c2cc(F)c([C@@H]3c4[nH]c5ccccc5c4C[C@@H](C)N3CC(C)(C)F)c(F)c2)C(C)(C)C)cc1 [Example 60, (2S,4R)-1-((S)-2-(5-((E)-3-(3,5-difluoro-4-((1R,3R)-2-(2-fluoro-2-methylpropyl)-3-methyl-2,3,4,9-tetrahydro-1H-pyrido[3,4-b]indol-1-yl)phenyl)acrylamido)pentanamido)-3,3-dimethylbutanoyl)-4-hydroxy-N-(4-(4-methylthiazol-5-yl)benzyl)pyrrolidine-2-carboxamide, Trifluoroacetic Acid] | • | 0.5
7 | Cc1ncsc1-c1ccc(CNC(=O)[C@@H]2C[C@@H](O)CN2C(=O)[C@@H](NC(=O)COCc2ccc(COc3cc(F)c([C@@H]4c5[nH]c6ccccc6c5C[C@@H](C)N4CC(C)(C)F)c(F)c3)cn2)C(C)(C)C)cc1 [Example 86, (2S,4R)-1-((S)-2-(2-((5-((3,5-Difluoro-4-((1R,3R)-2-(2-fluoro-2-methylpropyl)-3-methyl-2,3,4,9-tetrahydro-1H-pyrido[3,4-b]indol-1-yl)phenoxy)methyl)pyridin-2-yl)methoxy)acetamido)-3,3-dimethylbutanoyl)-4-hydroxy-N-(4-(4-methylthiazol-5-yl)benzyl)pyrrolidine-2-carboxamide] | •• | 0.6
8 | Cc1ncsc1-c1ccc(CNC(=O)[C@@H]2C[C@@H](O)CN2C(=O)[C@@H](NC(=O)COCc2ccc(OCCOc3cc(F)c([C@@H]4c5[nH]c6ccccc6c5C[C@@H](C)N4CC(C)(C)F)c(F)c3)cc2)C(C)(C)C)cc1 [Example 4, (2S,4R)-1-((S)-2-(2-((4-(2-(3,5-Difluoro-4-((1R,3R)-2-(2-fluoro-2-methylpropyl)-3-methyl-2,3,4,9-tetrahydro-1H-pyrido[3,4-b]indol-1-yl)phenoxy)ethoxy)benzyl)oxy)acetamido)-3,3-dimethylbutanoyl)-4-hydroxy-N-(4-(4-methylthiazol-5-yl)benzyl)pyrrolidine-2-carboxamide] | • | 2.1
9 | Cc1ncsc1-c1ccc(CNC(=O)[C@@H]2C[C@@H](O)CN2C(=O)[C@@H](NC(=O)COCCCCCCCOc2cc(F)c([C@@H]3c4[nH]c5ccccc5c4C[C@@H](C)N3CC(F)(F)CO)c(F)c2)C(C)(C)C)cc1 [Example 78, (2S,4R)-1-((S)-2-(2-((7-(4-((1R,3R)-2-(2,2-Difluoro-3-hydroxypropyl)-3-methyl-2,3,4,9-tetrahydro-1H-pyrido[3,4-b]indol-1-yl)-3,5-difluorophenoxy)heptyl)oxy)acetamido)-3,3-dimethylbutanoyl)-4-hydroxy-N-(4-(4-methylthiazol-5-yl)benzyl)pyrrolidine-2-carboxamide] | •• | 0.6
10 | Cc1ncsc1-c1ccc(CNC(=O)[C@@H]2C[C@@H](O)CN2C(=O)[C@@H](NC(=O)COCc2ccc(COc3cc(F)c([C@@H]4c5[nH]c6ccccc6c5C[C@@H](C)N4CC(C)(C)F)c(F)c3)nc2)C(C)(C)C)cc1 [Example 85, (2S,4R)-1-((S)-2-(2-((6-((3,5-difluoro-4-((1R,3R)-2-(2-fluoro-2-methylpropyl)-3-methyl-2,3,4,9-tetrahydro-1H-pyrido[3,4-b]indol-1-yl)phenoxy)methyl)pyridin-3-yl)methoxy)acetamido)-3,3-dimethylbutanoyl)-4-hydroxy-N-(4-(4-methylthiazol-5-yl)benzyl)pyrrolidine-2-carboxamide] | •• | 0.6
